In US20100261719A1, “CHEMICAL COMPOUNDS” (priority 2007, published 2010) one finds IC50 data, which are given here for 19 compounds.

In this assay the target is Escherichia coli DNA gyrase A/B tetramer (Escherichia coli, UniProt P0AES4+P0AES6). Kind of assay: DNA gyrase supercoiling activity fluorescence polarisation assay. Format: biochemical. A digest of the protocol:
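5 nM gyrase supercoils 130 μg/ml relaxed triplex-sequence plasmid with 0.3 mM ATP in Tris pH 7.5/KCl/MgCl2/spermidine buffer, 0.8% DMSO, ~30 min at ambient temperature, 5-10 compound concentrations. Quenched with 40 nM BODIPY-FL triplex probe at pH 3.5; anisotropy read after 60 min (485/535 nm). IC50 by nonlinear regression against no-compound and 5 uM ciprofloxacin controls.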
(In fluorescence polarisation assays a small probe gives low polarisation when free and higher when bound to something large.)

[1] abbreviates: 5 nM enzyme, 0.3 mM ATP, relaxed plasmid, fluorescence anisotropy readout, read-out: E. coli DNA gyrase supercoiling IC50.

The IC50 is the concentration that gives 50% inhibition.

Read-outs that look alike come from different tables or passages of the source. Some results are limits rather than exact numbers.

Chain of Escherichia coli DNA gyrase A/B tetramer (P0AES4 whole entry, one chain of several): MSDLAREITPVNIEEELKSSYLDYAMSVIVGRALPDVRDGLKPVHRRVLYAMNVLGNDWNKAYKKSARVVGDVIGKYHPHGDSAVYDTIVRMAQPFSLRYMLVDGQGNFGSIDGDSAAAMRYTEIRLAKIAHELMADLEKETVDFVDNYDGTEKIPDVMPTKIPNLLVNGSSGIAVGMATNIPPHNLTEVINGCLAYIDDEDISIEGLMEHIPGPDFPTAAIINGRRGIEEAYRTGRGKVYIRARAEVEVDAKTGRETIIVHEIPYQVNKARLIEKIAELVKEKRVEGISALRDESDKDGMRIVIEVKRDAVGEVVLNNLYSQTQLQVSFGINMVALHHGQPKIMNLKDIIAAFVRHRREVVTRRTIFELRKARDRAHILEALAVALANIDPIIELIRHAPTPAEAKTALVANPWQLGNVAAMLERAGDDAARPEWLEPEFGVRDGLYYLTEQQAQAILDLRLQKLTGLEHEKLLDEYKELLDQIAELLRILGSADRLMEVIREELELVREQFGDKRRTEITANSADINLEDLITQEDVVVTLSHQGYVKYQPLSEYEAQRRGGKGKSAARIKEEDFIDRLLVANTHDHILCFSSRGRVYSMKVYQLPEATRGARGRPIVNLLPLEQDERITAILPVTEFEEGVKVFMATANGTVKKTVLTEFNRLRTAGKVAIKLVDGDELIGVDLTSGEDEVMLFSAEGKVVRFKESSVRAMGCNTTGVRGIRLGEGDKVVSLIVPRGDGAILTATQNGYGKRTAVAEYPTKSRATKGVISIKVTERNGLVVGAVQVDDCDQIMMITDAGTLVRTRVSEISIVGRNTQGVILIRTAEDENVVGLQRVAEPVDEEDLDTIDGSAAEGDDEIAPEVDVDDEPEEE

As to `C[C@@H]1CN2c3c(cc(C(=O)NC4CCN(C(=O)OC(C)(C)C)C4)c(F)c3F)CC3(C(=O)NC(=O)NC3=O)[C@H]2[C@H](C)O1` (relative stereo) [Example 63, tert-Butyl 3-({[2R,4S,4aS)-rel-9,10-difluoro-2,4-dimethyl-2′,4′,6′-trioxo-1,1′,2,3′,4,4′,4a,6′-octahydro-2′H,6H-spiro[1,4-oxazino[4,3-a]quinoline-5,5′-pyrimidin]-8-yl]carbonyl}amino)pyrrolidine-1-carboxylate], under setting [1], the IC50 amounted to 6.4 µM.

As to `C[C@@H]1CN2c3c(cc(C(=O)NC4CCOC4)c(F)c3F)CC3(C(=O)NC(=O)NC3=O)[C@H]2[C@H](C)O1` (relative stereo) [Example 64, (2R,4S,4aS)-rel-9,10-Difluoro-2,4-dimethyl-2′,4′,6′-trioxo-N-(tetrahydrofuran-3-yl)-1,1′,2,3′,4,4′,4a,6′-octahydro-2′H,6H-spiro[1,4-oxazino[4,3-a]quinoline-5,5′-pyrimidine]-8-carboxamide], the IC50 came to 5.05 µM.

In turn, `C[C@@H]1CN2c3c(cc(C(=O)NC4CCCOC4)c(F)c3F)CC3(C(=O)NC(=O)NC3=O)[C@H]2[C@H](C)O1` (relative stereo) [Example 65, (2R,4S,4aS)-rel-9,10-Difluoro-2,4-dimethyl-2′,4′,6′-trioxo-N-(tetrahydro-2H-pyran-3-yl)-1,1′,2,3′,4,4′,4a,6′-octahydro-2′H,6H-spiro[1,4-oxazino[4,3-a]quinoline-5,5′-pyrimidine]-8-carboxamide] yielded an IC50 of over 10 µM.

For `C[C@@H]1CN2c3c(cc(C(=O)NC4CCOCC4)c(F)c3F)CC3(C(=O)NC(=O)NC3=O)[C@H]2[C@H](C)O1` (relative stereo) [Example 66, (2R,4S,4aS)-rel-9,10-Difluoro-2,4-dimethyl-2′,4′,6′-trioxo-N-(tetrahydro-2H-pyran-4-yl)-1,1′,2,3′,4,4′,4a,6′-octahydro-2′H,6H-spiro[1,4-oxazino[4,3-a]quinoline-5,5′-pyrimidine]-8-carboxamide], the IC50 is 5.86 µM.

`C[C@@H]1CN2c3c(cc(C(=O)NC4CCN(C(=O)OC(C)(C)C)CC4)c(F)c3F)CC3(C(=O)NC(=O)NC3=O)[C@H]2[C@H](C)O1` (relative stereo) [Example 67, tert-Butyl 4-({[(2R,4S,4aS)-rel-9,10-difluoro-2,4-dimethyl-2′,4′,6′-trioxo-1,1′,2,3′,4,4′,4a,6′-octahydro-2′H,6H-spiro[1,4-oxazino[4,3-a]quinoline-5,5′-pyrimidin]-8-yl]carbonyl}amino)piperidine-1-carboxylate] came in with an IC50 of 12 µM.

As to `C[C@@H]1CN2c3c(cc(C(=O)NC4CCN(c5ccccn5)CC4)c(F)c3F)CC3(C(=O)NC(=O)NC3=O)[C@H]2[C@H](C)O1` (relative stereo) [Example 68, (2R,4S,4aS)-rel-9,10-Difluoro-2,4-dimethyl-2′,4′,6′-trioxo-N-[1-(pyridin-2-yl)piperidin-4-yl]-1,1′,2,3′,4,4′,4a,6′-octahydro-2′H,6H-spiro[1,4-oxazino[4,3-a]quinoline-5,5′-pyrimidine]-8-carboxamide], the IC50 was found to be 4.15 µM.

Regarding `C[C@@H]1CN2c3c(cc(C(=O)NC4CCCN(C)C4)c(F)c3F)CC3(C(=O)NC(=O)NC3=O)[C@H]2[C@H](C)O1` (relative stereo) [Example 69, (2R,4S,4aS)-rel-9,10-Difluoro-2,4-dimethyl-N-(1-methylpiperidin-3-yl)-2′,4′,6′-trioxo-1,1′,2,3′,4,4′,4a,6′-octahydro-2′H,6H-spiro[1,4-oxazino[4,3-a]quinoline-5,5′-pyrimidine]-8-carboxamide], it took 8.68 µM to reach half-maximal inhibition (IC50).

Turning to `C[C@@H]1CN2c3c(cc(C(=O)NC4CCNC4)c(F)c3F)CC3(C(=O)NC(=O)NC3=O)[C@H]2[C@H](C)O1` (relative stereo) [Example 70, (2R,4S,4aS)-rel-9,10-Difluoro-2,4-dimethyl-2′,4′,6′-trioxo-N-(pyrrolidin-3-yl)-1,1′,2,3′,4,4′,4a,6′-octahydro-2′H,6H-spiro[1,4-oxazino[4,3-a]quinoline-5,5′-pyrimidine]-8-carboxamide], the IC50 came out at 2.91 µM.

Turning to `C[C@@H]1CN2c3c(cc(C(=O)NC4CCNCC4)c(F)c3F)CC3(C(=O)NC(=O)NC3=O)[C@H]2[C@H](C)O1` (relative stereo) [Example 71, (2R,4S,4aS)-rel-9,10-Difluoro-2,4-dimethyl-2′,4′,6′-trioxo-N-(piperidin-4-yl)-1,1′,2,3′,4,4′,4a,6′-octahydro-2′H,6H-spiro[1,4-oxazino[4,3-a]quinoline-5 ,5′-pyrimidine]-8-carboxamide], the IC50 turned out to be 5.97 µM.

On to `CCNC(=O)Nc1ccc2c(c1)CC1(C(=O)NC(=O)NC1=O)[C@H]1[C@H](C)O[C@H](C)CN21` (relative stereo) [Example 72, 1-[(2R,4S,4aS)-rel-2,4-Dimethyl-2′,4′,6′-trioxo-1,1′,2,3′,4,4′,4a,6′-octahydro-2′H,6H-spiro[1,4-oxazino[4,3-a]quinoline-5,5′-pyrimidin]-8-yl]-3-ethylurea], for which half-maximal inhibition (IC50) required 10.4 µM.

`C[C@@H]1CN2c3ccc(NC(=O)Nc4ccccc4)cc3CC3(C(=O)NC(=O)NC3=O)[C@H]2[C@H](C)O1` (relative stereo) [Example 73, 1-[(2R,4S,4aS)-rel-2,4-Dimethyl-2′,4′,6′-trioxo-1,1′,2,3′,4,4′,4a,6′-octahydro-2′H,6H-spiro[1,4-oxazino[4,3-a]quinoline-5,5′-pyrimidin]-8-yl]-3-phenylurea] registered an IC50 of 5.02 µM.

Take `C[C@@H]1CN2c3ccc(NC(=O)N4CCCCC4)cc3CC3(C(=O)NC(=O)NC3=O)[C@H]2[C@H](C)O1` (relative stereo) [Example 74, N-[(2R,4S,4aS)-rel-2,4-Dimethyl-2′,4′,6′-trioxo-1,1′,2,3′,4,4′,4a,6′-octahydro-2′H,6H-spiro[1,4-oxazino[4,3-a]quinoline-5,5′-pyrimidin]-8-yl]piperidine-1-carboxamide]: the midpoint of inhibition, the IC50, lay at 3.51 µM.

Turning to `C[C@@H]1CN2c3ccc(NS(=O)(=O)N4CCOCC4)cc3CC3(C(=O)NC(=O)NC3=O)[C@H]2[C@H](C)O1` (relative stereo) [Example 75, N-[(2R,4S ,4aS)-rel-2,4-Dimethyl-2′,4′,6′-trioxo-1,1′,2,3′,4,4′,4a,6′-octahydro-2′H,6H-spiro[1,4-oxazino[4,3-a]quinoline-5,5′-pyrimidin]-8-yl]morpholine-4-sulfonamide], the IC50 turned out to be 0.66 µM.

The compound `C[C@@H]1CN2c3ccc(NC(=O)N4CCNC4=O)cc3CC3(C(=O)NC(=O)NC3=O)[C@H]2[C@H](C)O1` (relative stereo) [Example 76, N-[(2R,4S,4aS)-rel-2,4-Dimethyl-2′,4′,6′-trioxo-1,1′,2,3′,4,4′,4a,6′-octahydro-2′H,6H-spiro[1,4-oxazino[4,3-a]quinoline-5,5′-pyrimidin]-8-yl]-2-oxoimidazolidine-1-carboxamide] returned an IC50 of 16.5 µM.

On to `C[C@@H]1CN2c3ccc(NC(=O)N(C)C)cc3CC3(C(=O)NC(=O)NC3=O)[C@H]2[C@H](C)O1` (relative stereo) [Example 77, 3-[(2R,4S,4aS)-rel-2,4-Dimethyl-2′,4′,6′-trioxo-1,1′,2,3′,4,4′,4a,6′-octahydro-2′H,6H-spiro[1,4-oxazino[4,3-a]quinoline-5,5′-pyrimidin]-8-yl]-1,1-dimethylurea], for which the IC50 stood at 21.7 µM.

The compound `CNC(=O)Nc1ccc2c(c1)CC1(C(=O)NC(=O)NC1=O)[C@H]1[C@H](C)O[C@H](C)CN21` (relative stereo) [Example 78, 1-[(2R,4S,4aS)-rel-2,4-Dimethyl-2′,4′,6′-trioxo-1,1′,2,3′,4,4′,4a,6′-octahydro-2′H,6H-spiro[1,4-oxazino[4,3-a]quinoline-5,5′-pyrimidin]-8-yl]-3-methylurea] yielded an IC50 of 8.65 µM.

Turning to `C[C@@H]1CN2c3c(cc(C#Cc4cnccn4)c(F)c3F)CC3(C(=O)NC(=O)NC3=O)[C@H]2[C@H](C)O1` [Example 79, (2R,4S,4aS)-9,10-Difluoro-2,4-dimethyl-8-(pyrazin-2-ylethynyl)-2,4,4a,6-tetrahydro-1H,1′H-spiro[[1,4]oxazino[4,3-a]quinoline-5,5′-pyrimidine]-2′,4′,6′(3′H)-trione], the concentration for half-maximal inhibition (IC50) turned out to be 0.4 µM.

As to “(2R,4S,4aS)-rel-9,10-Difluoro-2,4-dimethyl-8-[(E)-(morpholin-4-ylimino)methyl]-1,2,4,4a-tetrahydro-2′H,6H-spiro[1,4-oxazino[4,3-a]quinoline-5,5′-pyrimidine]-2′,4′,6(1′H,3′H)-trione [Example 22]”, under setting [1], the IC50 came out at 1.57 µM.

With “(2R,4S,4aS)-rel-10-Fluoro-2,4-dimethyl-8-[(1-methyl-1H-imidazol-2-yl)ethynyl]-1,2,4,4a-tetrahydro-2′H,6H-spiro[1,4-oxazino[4,3-a]quinoline-5,5′-pyrimidine]-2′,4′,6(1′H,3′H)-trione [Example 42]”, under setting [1], the IC50 was 0.64 µM.
